Literature values, collected in patent publication US20240108573A1, “NANOLIPID CARRIER BASED FORMULATION FOR BRAIN DELIVERY THROUGH INTRANASAL ROUTE AND ITS PREPARATION PROCESS” (AMRITA SCHOOL OF PHARMACY, AMRITA VISHWA VIDYAPEETHAM, priority 2022, published 2024).

For `O=C1NC(=O)C(c2ccccc2)(c2ccccc2)N1` [phenytoin sodium], the biological half-life is listed as 15-22 hrs.
